According to the NIST ThermoML archive (doi:10.1016/j.jct.2018.01.019):
Numbers after ± are expanded uncertainties.

Assay: molar heat capacity at constant pressure
Conditions: 101.33 kPa, Small sample (50 mg) DSC

O=[Si]=O [silicon dioxide]
Conditions | molar heat capacity at constant pressure [J/K/mol]
794.62 K, Crystal 2 | 71.82 ± 1.1
794.79 K, Crystal 2 | 71.62 ± 1.1
794.95 K, Crystal 2 | 71.49 ± 1.1
795.12 K, Crystal 2 | 71.46 ± 1.1
795.29 K, Crystal 2 | 71.47 ± 1.1
795.45 K, Crystal 2 | 71.5 ± 1.1
795.62 K, Crystal 2 | 71.77 ± 1.1
795.78 K, Crystal 2 | 71.9 ± 1.1
795.95 K, Crystal 2 | 71.83 ± 1.1
796.12 K, Crystal 2 | 71.66 ± 1.1
796.29 K, Crystal 2 | 71.81 ± 1.1
796.46 K, Crystal 2 | 72.04 ± 1.1
796.62 K, Crystal 2 | 72.01 ± 1.1
796.79 K, Crystal 2 | 71.86 ± 1.1
796.96 K, Crystal 2 | 71.68 ± 1.1
797.12 K, Crystal 2 | 71.48 ± 1.1
797.29 K, Crystal 2 | 71.6 ± 1.1
797.46 K, Crystal 2 | 71.73 ± 1.1
797.62 K, Crystal 2 | 71.68 ± 1.1
797.79 K, Crystal 2 | 71.65 ± 1.1
797.96 K, Crystal 2 | 71.81 ± 1.1
798.13 K, Crystal 2 | 71.82 ± 1.1
798.29 K, Crystal 2 | 71.7 ± 1.1
798.46 K, Crystal 2 | 71.81 ± 1.1
798.62 K, Crystal 2 | 71.8 ± 1.1
798.79 K, Crystal 2 | 71.9 ± 1.1
798.96 K, Crystal 2 | 72.09 ± 1.1
799.12 K, Crystal 2 | 72 ± 1.1
799.29 K, Crystal 2 | 71.85 ± 1.1
799.46 K, Crystal 2 | 71.85 ± 1.1
799.62 K, Crystal 2 | 71.85 ± 1.1
799.79 K, Crystal 2 | 71.96 ± 1.1
799.96 K, Crystal 2 | 72.13 ± 1.1
800.12 K, Crystal 2 | 72.26 ± 1.1
800.29 K, Crystal 2 | 72.07 ± 1.1
800.46 K, Crystal 2 | 71.86 ± 1.1
800.63 K, Crystal 2 | 72 ± 1.1
800.79 K, Crystal 2 | 72.09 ± 1.1
800.96 K, Crystal 2 | 72.12 ± 1.1
801.12 K, Crystal 2 | 72.16 ± 1.1
801.29 K, Crystal 2 | 71.98 ± 1.1
801.46 K, Crystal 2 | 71.96 ± 1.1
801.63 K, Crystal 2 | 71.86 ± 1.1
801.79 K, Crystal 2 | 71.9 ± 1.1
801.96 K, Crystal 2 | 71.86 ± 1.1
802.12 K, Crystal 2 | 71.92 ± 1.1
802.29 K, Crystal 2 | 71.92 ± 1.1
802.46 K, Crystal 2 | 72.04 ± 1.1
802.62 K, Crystal 2 | 72.2 ± 1.1
802.79 K, Crystal 2 | 72.1 ± 1.1
802.96 K, Crystal 2 | 71.91 ± 1.1
803.12 K, Crystal 2 | 71.68 ± 1.1
803.29 K, Crystal 2 | 71.76 ± 1.1
803.46 K, Crystal 2 | 71.76 ± 1.1
803.63 K, Crystal 2 | 71.8 ± 1.1
803.79 K, Crystal 2 | 72.11 ± 1.1
803.96 K, Crystal 2 | 72.29 ± 1.1
804.13 K, Crystal 2 | 72.1 ± 1.1
804.29 K, Crystal 2 | 71.93 ± 1.1
804.46 K, Crystal 2 | 71.94 ± 1.1
804.62 K, Crystal 2 | 71.92 ± 1.1
804.79 K, Crystal 2 | 71.93 ± 1.1
804.96 K, Crystal 2 | 72.09 ± 1.1
805.13 K, Crystal 2 | 72.17 ± 1.1
805.29 K, Crystal 2 | 72.03 ± 1.1
805.46 K, Crystal 2 | 72.03 ± 1.1
805.63 K, Crystal 2 | 72 ± 1.2
805.79 K, Crystal 2 | 72.07 ± 1.2
805.96 K, Crystal 2 | 72.1 ± 1.1
806.13 K, Crystal 2 | 72.19 ± 1.1
806.29 K, Crystal 2 | 72.25 ± 1.1
806.46 K, Crystal 2 | 72.37 ± 1.1
806.63 K, Crystal 2 | 72.33 ± 1.1
806.79 K, Crystal 2 | 72.24 ± 1.1
806.96 K, Crystal 2 | 72.08 ± 1.1
807.13 K, Crystal 2 | 71.96 ± 1.1
807.3 K, Crystal 2 | 71.9 ± 1.1
807.47 K, Crystal 2 | 72.16 ± 1.1
807.63 K, Crystal 2 | 72.29 ± 1.2
807.8 K, Crystal 2 | 72.39 ± 1.1
807.97 K, Crystal 2 | 72.54 ± 1.2
808.13 K, Crystal 2 | 72.48 ± 1.2
808.3 K, Crystal 2 | 72.36 ± 1.1
808.47 K, Crystal 2 | 72.31 ± 1.1
808.64 K, Crystal 2 | 72.39 ± 1.1
808.81 K, Crystal 2 | 72.34 ± 1.1
808.97 K, Crystal 2 | 72.47 ± 1.2
809.14 K, Crystal 2 | 72.61 ± 1.3
809.3 K, Crystal 2 | 72.59 ± 1.3
809.47 K, Crystal 2 | 72.53 ± 1.3
809.64 K, Crystal 2 | 72.6 ± 1.2
809.8 K, Crystal 2 | 72.59 ± 1.2
809.97 K, Crystal 2 | 72.54 ± 1.1
855 K, Crystal 1 | 69.38 ± 1.3
855.17 K, Crystal 1 | 69.28 ± 1.2
855.33 K, Crystal 1 | 69.26 ± 1.2
855.5 K, Crystal 1 | 69.13 ± 1.1
855.67 K, Crystal 1 | 69.16 ± 1.2
855.83 K, Crystal 1 | 69.22 ± 1.2
856 K, Crystal 1 | 69.21 ± 1.2
856.16 K, Crystal 1 | 69.11 ± 1.2
856.33 K, Crystal 1 | 69.06 ± 1.2
856.5 K, Crystal 1 | 68.99 ± 1.1
856.66 K, Crystal 1 | 68.93 ± 1.1
856.83 K, Crystal 1 | 68.69 ± 1.1
857 K, Crystal 1 | 68.5 ± 1.1
857.17 K, Crystal 1 | 68.55 ± 1.2
857.34 K, Crystal 1 | 68.66 ± 1.2
857.51 K, Crystal 1 | 68.7 ± 1.1
857.68 K, Crystal 1 | 68.71 ± 1.2
857.84 K, Crystal 1 | 68.75 ± 1.2
858.01 K, Crystal 1 | 68.66 ± 1.2
858.17 K, Crystal 1 | 68.56 ± 1.2
858.34 K, Crystal 1 | 68.6 ± 1.1
858.51 K, Crystal 1 | 68.58 ± 1.1
858.68 K, Crystal 1 | 68.63 ± 1.1
858.84 K, Crystal 1 | 68.51 ± 1.1
859.01 K, Crystal 1 | 68.34 ± 1.1
859.18 K, Crystal 1 | 68.29 ± 1.1
859.34 K, Crystal 1 | 68.29 ± 1.1
859.51 K, Crystal 1 | 68.3 ± 1.1
859.68 K, Crystal 1 | 68.35 ± 1.1
859.84 K, Crystal 1 | 68.21 ± 1.1
860.01 K, Crystal 1 | 68.03 ± 1.1
860.18 K, Crystal 1 | 68.14 ± 1.1
860.34 K, Crystal 1 | 68.2 ± 1.1
860.51 K, Crystal 1 | 68.18 ± 1.1
860.67 K, Crystal 1 | 68.22 ± 1.1
860.84 K, Crystal 1 | 68.32 ± 1.1
861.01 K, Crystal 1 | 68.41 ± 1.1
861.17 K, Crystal 1 | 68.37 ± 1.1
861.34 K, Crystal 1 | 68.49 ± 1.1
861.51 K, Crystal 1 | 68.55 ± 1.1
861.67 K, Crystal 1 | 68.37 ± 1.1
861.84 K, Crystal 1 | 68.37 ± 1.1
862.01 K, Crystal 1 | 68.4 ± 1.1
862.18 K, Crystal 1 | 68.4 ± 1.1
862.34 K, Crystal 1 | 68.53 ± 1.1
862.51 K, Crystal 1 | 68.5 ± 1.1
862.68 K, Crystal 1 | 68.45 ± 1.1
862.84 K, Crystal 1 | 68.5 ± 1.1
863.01 K, Crystal 1 | 68.42 ± 1.1
863.18 K, Crystal 1 | 68.35 ± 1.1
863.35 K, Crystal 1 | 68.3 ± 1.1
863.51 K, Crystal 1 | 68.21 ± 1.1
863.68 K, Crystal 1 | 68.19 ± 1.1
863.85 K, Crystal 1 | 68.28 ± 1.1
864.01 K, Crystal 1 | 68.44 ± 1.1
864.18 K, Crystal 1 | 68.48 ± 1.1
864.34 K, Crystal 1 | 68.4 ± 1.1
864.51 K, Crystal 1 | 68.29 ± 1.1
864.68 K, Crystal 1 | 68.37 ± 1.1
864.84 K, Crystal 1 | 68.59 ± 1.1
865.01 K, Crystal 1 | 68.52 ± 1.1
865.18 K, Crystal 1 | 68.35 ± 1.1
865.34 K, Crystal 1 | 68.39 ± 1.1
865.5 K, Crystal 1 | 68.4 ± 1.1
865.67 K, Crystal 1 | 68.46 ± 1.1
865.84 K, Crystal 1 | 68.59 ± 1.1
866.01 K, Crystal 1 | 68.64 ± 1.1
866.18 K, Crystal 1 | 68.69 ± 1.1
866.35 K, Crystal 1 | 68.59 ± 1.1
866.51 K, Crystal 1 | 68.39 ± 1.1
866.67 K, Crystal 1 | 68.35 ± 1.1
866.84 K, Crystal 1 | 68.26 ± 1.1
867.01 K, Crystal 1 | 68.21 ± 1.1
867.17 K, Crystal 1 | 68.25 ± 1.1
867.34 K, Crystal 1 | 68.38 ± 1.1
867.51 K, Crystal 1 | 68.37 ± 1.1
867.67 K, Crystal 1 | 68.45 ± 1.1
867.84 K, Crystal 1 | 68.49 ± 1.1
868.01 K, Crystal 1 | 68.4 ± 1.1
868.18 K, Crystal 1 | 68.35 ± 1.1
868.34 K, Crystal 1 | 68.32 ± 1.1
868.51 K, Crystal 1 | 68.4 ± 1.1
868.68 K, Crystal 1 | 68.45 ± 1.1
868.85 K, Crystal 1 | 68.49 ± 1.1
869.01 K, Crystal 1 | 68.43 ± 1.1
